Results as given in patent US20260200884A1, “COMPOUND FOR TREATING GOUT OR HYPERURICEMIA” (Arthrosi Therapeutics, Inc., priority 2019, published 2026).

Legend:
[1] = cited from earlier work
[2] = Solubility of the test article in HBSS assay buffer; assay type: physicochemical; details: all tested concentrations 0.01-10 μM; highest tested concentration 10 μM
Method: Before the experiment, the medium was removed and the cells were washed twice with 100 μL of HBSS without Cl^−. Uptake experiments were carried out at 37±1° C. in 50 μL of HBSS without Cl^−, pH 7.4 containing the probe substrate (20 μM uric acid) and the test article (TA) or solvent.
Results: Compound 1 was soluble in HBSS buffer at all tested concentrations; the highest tested concentration being 10 μM.

Compound	serum uric acid (sUA) level reached ([1]; chronic therapy, patients) [mg/dL]	hepatotoxicity ([1]; in certain patients)	solubility in HBSS buffer [2]
CCc1oc2ccccc2c1C(=O)c1cc(Br)c(O)c(Br)c1 [Benzbromarone]	< 6	associated with hepatotoxicity	–
[2H]c1c(O)c([2H])c2oc(C(C)O)c(C(=O)c3cc(Br)c(O)c(Br)c3)c2c1[2H] (stereo not drawn) [Compound 1, (3,5-dibromo-4-hydroxyphenyl)(6-hydroxy-2-(1-hydroxyethyl)benzofuran-3-yl-4,5,7-d3)methanone]	–	–	soluble
